Target: mGluR1 (Homo sapiens, UniProt Q13255)
Assay: mGluR1 activity screening using FDSS6000 (intracellular calcium, L-Glutamate stimulation)
Format: cell-based
Conditions: Chem3 Cell Line (HTS145C:Millipore) stably expressing mGluR1, L-Glutamate 30 μM, Ca2+ fluorescent dye, read-out: IC50 (nM) against mGluR1
Procedure: mGluR1 Activity Screening Method Using FDSS6000
Cells of Chem3 Cell Line (HTS145C:Millipore) in which mGluR1 was stably expressed were adjusted to a density of 2×10^6/ml. 50 μl of the cells were plated in each well of a 96-well plate, and stabilized at 5% CO2 and 37° C. for 1 hr. The cells were allowed to react with an HBSS buffer containing a Ca^2+ fluorescent dye (FLIPR Calcium 5 assay kit: Molecular Devices) under the conditions of 5% CO2 and 37° C. for 30 min. As a result of the reaction, the cells were labeled with the fluorescent dye. Separately from the 96-well plate containing the fluorescently labeled cells, another 96-well plate was prepared that contained L-Glutamate (final concentration=30 μM) activating mGluR1 and a blocking drug to be screened. Most cell-based HTS systems have liquid application systems necessary for drug injection but no liquid inhalation systems. For this reason, 25 μl of each of the blocking drug and L-Glutamate was prepared at a 6-fold higher concentration in an HBSS buffer and diluted 6-fold in the final volume […] of the cell plate before measurement. Specifically, after drug pretreatment for 75 sec following recording the reference value at 20 sec, a change in intracellular calcium concentration caused by L-glutamate administration was measured using FDSS6000. The inhibitory effect of the test substance was expressed as a percent (%) relative to the area of the 480 nm/520 nm ratio in a control group untreated with the test substance. 10 μM PCTC20001 was always used as the control drug.
For detailed imaging of calcium, the cells were selectively exposed to an excitation wavelength (480 nm) from four xenon light sources mounted in FDSS6000 through a computer-controlled filter wheel. Data were recorded at 1.23-sec intervals. Emitter fluorescence light entering through a 520 nm long-pass filter was allowed to pass through a cooled CCD camera mounted in the system. An average 480 nm/520 nm ratio was obtained in each well of the 96-well plate using a digital fluorescence analyzer. All imaging data were collected and analyzed with the help of a dedicated program for FDSS6000 (Hamamatsu Photonics).
Measurement of IC50 Values Against mGluR1
The IC50 values (nM) of the novel compounds of Formula 1 according to the present invention against mGluR1 are shown in Table 1.

Chain of mGluR1 (Q13255 19-1194): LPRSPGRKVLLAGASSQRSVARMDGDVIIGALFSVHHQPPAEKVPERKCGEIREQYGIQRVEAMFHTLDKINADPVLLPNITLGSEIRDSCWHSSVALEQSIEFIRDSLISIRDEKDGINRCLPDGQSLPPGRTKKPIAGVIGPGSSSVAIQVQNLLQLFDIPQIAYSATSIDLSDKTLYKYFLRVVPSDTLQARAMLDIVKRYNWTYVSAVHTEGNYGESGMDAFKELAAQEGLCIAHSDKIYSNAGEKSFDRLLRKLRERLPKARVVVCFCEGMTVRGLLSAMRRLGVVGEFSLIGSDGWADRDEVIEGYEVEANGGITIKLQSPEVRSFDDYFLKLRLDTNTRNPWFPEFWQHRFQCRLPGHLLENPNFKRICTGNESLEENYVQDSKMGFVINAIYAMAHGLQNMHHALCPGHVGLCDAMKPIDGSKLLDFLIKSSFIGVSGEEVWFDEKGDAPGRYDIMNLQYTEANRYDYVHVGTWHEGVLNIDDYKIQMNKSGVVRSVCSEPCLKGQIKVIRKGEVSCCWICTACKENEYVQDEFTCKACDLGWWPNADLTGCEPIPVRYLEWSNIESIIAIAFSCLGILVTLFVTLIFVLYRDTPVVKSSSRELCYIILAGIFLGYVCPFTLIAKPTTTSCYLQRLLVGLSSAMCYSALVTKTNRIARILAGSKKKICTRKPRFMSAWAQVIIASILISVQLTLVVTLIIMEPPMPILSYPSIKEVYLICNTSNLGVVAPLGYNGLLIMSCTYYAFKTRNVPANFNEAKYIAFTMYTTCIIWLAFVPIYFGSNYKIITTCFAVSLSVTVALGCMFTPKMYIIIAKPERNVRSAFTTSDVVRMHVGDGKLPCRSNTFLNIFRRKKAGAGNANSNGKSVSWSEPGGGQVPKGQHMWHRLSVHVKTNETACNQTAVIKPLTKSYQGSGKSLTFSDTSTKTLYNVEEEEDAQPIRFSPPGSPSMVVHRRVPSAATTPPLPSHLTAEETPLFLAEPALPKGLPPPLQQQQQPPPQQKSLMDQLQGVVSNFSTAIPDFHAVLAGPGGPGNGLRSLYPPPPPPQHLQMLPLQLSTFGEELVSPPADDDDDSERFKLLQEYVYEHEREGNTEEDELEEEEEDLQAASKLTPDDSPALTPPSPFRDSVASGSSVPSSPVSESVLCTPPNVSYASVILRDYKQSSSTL

| SMILES | IC50 |
| --- | --- |
| O=c1c2scc(-c3ccccc3)c2ncn1-c1ccccc1F [Compound 2, 3-(2-Fluorophenyl)-7-phenylthieno[3,2-d]pyrimidin-4(3H)-one] | 407 nM |
| O=c1c2scc(-c3ccccc3)c2ncn1-c1cccc(Cl)c1 [Compound 6, 3-(3-Chlorophenyl)-7-phenylthieno[3,2-d]pyrimidin-4(3H)-one] | 58 nM |
| O=c1c2scc(-c3ccccc3)c2ncn1-c1ccc(Cl)cc1 [Compound 7, 3-(4-Chlorophenyl)-7-phenylthieno[3,2-d]pyrimidin-4(3H)-one] | 66 nM |
| Cc1ccc(-n2cnc3c(-c4ccccc4)csc3c2=O)cc1 [Compound 18, 7-Phenyl-3-p-tolylthieno[3,2-d]pyrimidin-4(3H)-one] | 112 nM |
| C=Cc1cccc(-n2cnc3c(-c4ccccc4)csc3c2=O)c1 [Compound 29, 7-Phenyl-3-(3-vinylphenyl)thieno[3,2-d]-pyrimidin-4(3H)-one] | 74 nM |
| O=c1c2scc(-c3ccccc3F)c2ncn1-c1ccc(Cl)cc1 [Compound 32, 3-(4-Chlorophenyl)-7-(2-fluorophenyl)thieno[3,2-d]pyrimidin-4(3H)-one] | 30 nM |
| Cc1ccc(-c2csc3c(=O)n(-c4ccc(Cl)cc4)cnc23)cc1 [Compound 58, 3-(4-Chlorophenyl)-7-(p-tolyl)thieno[3,2-d]pyrimidin-4(3H)-one] | 80 nM |
| COc1ccc(-n2cnc3c(-c4ccc(C)cc4)csc3c2=O)cc1 [Compound 59, 3-(4-Methoxyphenyl)-7-(p-tolyl)thieno[3,2-d]pyrimidin-4(3H)-one] | 661 nM |
| O=c1c2scc(-c3ccc4c(c3)OCO4)c2ncn1-c1ccc(Cl)cc1 [Compound 68, 7-(Benzo[d][1,3]dioxol-5-yl)-3-(4-chlorophenyl)thieno[3,2-d]pyrimidin-4(3H)-one] | 447 nM |
| COc1ccc(-n2cnc3c(-c4ccc5c(c4)OCO5)csc3c2=O)cc1 [Compound 69, 7-(Benzo[d][1,3]dioxol-5-yl)-3-(4-methoxyphenyl)thieno[3,2-d]pyrimidin-4(3H)-one] | 1990 nM |
| COc1ccc(-n2c(C)nc3c(-c4ccccc4)csc3c2=O)cc1 [Compound 74, 3-(4-Methoxyphenyl)-2-methyl-7-phenylthieno[3,2-d]pyrimidin-4(3H)-one] | 564 nM |

Reference: patent publication US9260448B2, “Thienopyrimidinone derivatives as mGluR1 antagonists” (KOREA INSTITUTE OF SCIENCE AND TECHNOLOGY, priority 2013, dated 2016)
